Results from patent publication US9624239B2, “Protein kinase inhibitors” (Pharmascience Inc., priority 2011, dated 2017).

Experiments:
[1] = molecular target: T1, histidine tagged recombinant human full-length Bruton Agammaglobulinemia Tyrosine Kinase (Btk) (Homo sapiens, UniProt Q06187); test: Btk kinase inhibition assay (fluorescence polarization, KinEASE FP Fluorescein Green); assay type: biochemical; settings: 10 μM ATP, 250 μM substrate, 60 minutes, room temperature; Ki from IC50 by Cheng-Prusoff; read-out: ki50 (nM), Inhibition of Btk
T1 construct: recombinant human full-length Bruton Agammaglobulinemia Tyrosine Kinase (Btk); histidine tag
T1 sequence (Q06187 whole entry): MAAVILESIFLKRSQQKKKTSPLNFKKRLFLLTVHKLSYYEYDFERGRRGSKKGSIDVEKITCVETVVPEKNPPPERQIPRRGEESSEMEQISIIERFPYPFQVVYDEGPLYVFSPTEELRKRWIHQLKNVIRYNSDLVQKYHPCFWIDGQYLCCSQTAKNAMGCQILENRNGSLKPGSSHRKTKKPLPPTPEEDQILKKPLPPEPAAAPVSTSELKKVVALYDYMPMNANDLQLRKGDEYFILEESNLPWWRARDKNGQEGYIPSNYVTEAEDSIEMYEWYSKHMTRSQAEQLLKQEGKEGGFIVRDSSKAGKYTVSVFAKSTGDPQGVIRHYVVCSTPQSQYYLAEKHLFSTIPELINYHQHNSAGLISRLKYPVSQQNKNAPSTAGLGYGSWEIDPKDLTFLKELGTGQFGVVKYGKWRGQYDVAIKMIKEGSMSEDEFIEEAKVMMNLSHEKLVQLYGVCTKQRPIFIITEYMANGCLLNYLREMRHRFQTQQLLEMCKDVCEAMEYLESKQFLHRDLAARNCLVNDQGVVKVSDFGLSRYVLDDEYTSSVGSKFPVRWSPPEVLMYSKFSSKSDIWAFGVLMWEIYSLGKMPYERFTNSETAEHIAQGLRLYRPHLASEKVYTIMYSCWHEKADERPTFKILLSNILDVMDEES
Description: Kinase Binding Btk and Lck Kinase Inhibition Assay
Fluorescence polarization-based kinase assays were performed in 384 well-plate format using histidine tagged recombinant human full-length Bruton Agammaglobulinemia Tyrosine Kinase (Btk) or histidine tagged recombinant Human Lymphocyte-Specific Protein Tyrosine Kinase (Lck) and a modified protocol of the KinEASE™ FP Fluorescein Green Assay supplied from Millipore. Kinase reaction were performed at room temperature for 60 minutes in presence of 250 μM substrate, 10 μM ATP and variable test article concentrations. The reaction was stopped with EDTA/kinease detection reagents and the polarization measured on a Tecan 500 instrument. From the dose-response curve obtained, the IC50 was calculated using Graph Pad Prisms® using a non-linear fit curve. The Km for ATP on each enzyme was experimentally determined and the Ki values calculated using the Cheng-Prusoff equation (see: Cheng Y, Prusoff W H. (1973) Relationship between the inhibition constant (K1) and the concentration of inhibitor which causes 50 percent inhibition (I50) of an enzymatic reaction”. Biochem Pharmacol 22 (23): 3099-108).
ki values are reported in Tables 2 and 3: • a—Less than 100 nM; b—less than 1000 nM; c—more than 1000 nM

mouse splenocytes = test: Splenic cell proliferation assay (anti-IgM stimulated B cell proliferation, Cell Titer-Glo); assay type: cell-based; settings: Splenocyte; CD1 mouse splenocytes, 1 h pre-treatment, 2.5 ug/ml anti-IgM F(ab')2 for 72 h; read-out: EC50 (nM), Inhibition of splenic cell proliferation
Description: Splenic Cell Proliferation Assay
Splenocytes were obtained from 6 week old male CD1 mice (Charles River Laboratories Inc.). Mouse spleens were manually disrupted in PBS and filtered using a 70 μm cell strainer followed by ammonium chloride red blood cell lysis. Cells were washed, resuspended in Splenocyte Medium (HyClone RPMI supplemented with 10% heat-inactivated FBS, 0.5× non-essential amino acids, 10 mM HEPES, 50 uM beta mercaptoethanol) and incubated at 37° C., 5% CO2 for 2 h to remove adherent cells. Suspension cells were seeded in 96 well plates at 50,000 cells per well and incubated at 37° C., 5% CO2 for 1 h. Splenocytes were pre-treated in triplicate with 10,000 nM curves of Formula 1 compounds for 1 h, followed by stimulation of B cell proliferation with 2.5 ug/ml anti-IgM F(ab′)2 (Jackson ImmunoResearch) for 72 h. Cell proliferation was measured by Cell Titer-Glo Luminescent Assay (Promega). EC50 values (50% proliferation in the presence of compound as compared to vehicle treated controls) were calculated from dose response compound curves using GraphPad Prism Software.
EC50 values are reported in Table 4: • a—Less than 100 nM; b—less than 1000 nM; c—more than 1000 nM

Row | Ki [1] | Structure (SMILES) | EC50 (mouse splenocytes)
1 | > 1000 nM | Nc1ncnc2c3c(n(-c4ccc(Oc5ccccc5)cc4)c12)CN(C(=O)OCc1ccccc1)C3 [Compound 5] | –
2 | > 1000 nM | Nc1ncnc2c3c(n(-c4ccc(Oc5ccccc5)cc4)c12)CCN(C(=O)OCc1ccccc1)C3 [Compound 6] | –
3 | > 1000 nM | Nc1ncnc2c3c(n(-c4ccc(Oc5ccccc5)cc4)c12)CN(Cc1ccccc1)C3 [Compound 10] | –
4 | > 1000 nM | Nc1ncnc2c3c(n(-c4ccc(Oc5ccccc5)cc4)c12)CCN(Cc1ccccc1)C3 [Compound 11] | –
5 | > 1000 nM | Nc1ncnc2c3c(n(-c4ccc(Oc5ccccc5)cc4)c12)CCN(S(=O)(=O)c1ccccc1)C3 [Compound 12] | –
6 | > 1000 nM | Nc1ncnc2c3c(n(-c4ccc(Oc5ccccc5)cc4)c12)CCN(C(=O)c1ccccc1)C3 [Compound 16] | –
7 | > 1000 nM | NCC(=O)N1CCc2c(c3ncnc(N)c3n2-c2ccc(Oc3ccccc3)cc2)C1 [Compound 17] | –
8 | > 1000 nM | NCC(=O)N1Cc2c(n(-c3ccc(Oc4ccccc4)cc3)c3c(N)ncnc23)C1 [Compound 19] | –
9 | < 1000 nM | CC1OCc2c1c1ncnc(N)c1n2-c1ccc(Oc2cccc(N)c2)cc1 (centres unmarked) [Compound 47] | –
10 | > 1000 nM | CC1OCc2c1c1ncnc(N)c1n2-c1ccc(Oc2cccc(OCCN(C)C)c2)cc1 (centres unmarked) [Compound 48] | –
11 | > 1000 nM | CC1OCc2c1c1ncnc(N)c1n2-c1ccc(Oc2cccc(OCCN3CCOCC3)c2)cc1 (centres unmarked) [Compound 51] | –
12 | > 1000 nM | CC1OCc2c1c1ncnc(N)c1n2-c1ccc(Oc2cccc(OCCN3CCCC3)c2)cc1 (centres unmarked) [Compound 52] | –
13 | < 1000 nM | CC(=O)Nc1cccc(Oc2ccc(-n3c4c(c5ncnc(N)c53)C(C)OC4)cc2)c1 (centres unmarked) [Compound 55] | –
14 | < 100 nM | Nc1ncnc2c3c(n(-c4ccc(Oc5cccc(OCc6cccnc6)c5)cc4)c12)CCC3 [Compound 62] | 100 to 1000 nM
15 | > 1000 nM | Nc1ncnc2c3c(n(-c4ccc(Oc5ccccc5)cc4)c12)CSC3 [Compound 63] | > 1000 nM
16 | < 1000 nM | CC1OCc2c1c1ncnc(N)c1n2-c1ccc(Oc2cccc(OCc3ccc(C#N)cc3)c2)cc1 (centres unmarked) [Compound 64] | > 1000 nM
17 | > 1000 nM | Nc1ncnc2c3c(n(-c4ccc(Oc5ccccc5)cc4)c12)CS(=O)(=O)C3 [Compound 65] | > 1000 nM
18 | < 1000 nM | CCNc1cccc(Oc2ccc(-n3c4c(c5ncnc(N)c53)C(C)OC4)cc2)c1 (centres unmarked) [Compound 66] | 100 to 1000 nM
19 | < 100 nM | CC1OCc2c1c1ncnc(N)c1n2-c1ccc(Oc2cccc(OCC3CCOCC3)c2)cc1 (centres unmarked) [Compound 67] | > 1000 nM
20 | < 100 nM | Nc1ncnc2c3c(n(-c4ccc(Oc5cccc(OCc6ccccc6)c5)cc4)c12)CCC3 [Compound 68] | 100 to 1000 nM
21 | < 100 nM | CC1OCc2c1c1ncnc(N)c1n2-c1ccc(Oc2cccc(NCc3ccccc3)c2)cc1 (centres unmarked) [Compound 69] | > 1000 nM
22 | < 1000 nM | CC1OCc2c1c1ncnc(N)c1n2-c1ccc(Oc2cccc(N(C)C)c2)cc1 (centres unmarked) [Compound 70] | 100 to 1000 nM
23 | > 1000 nM | CC1OCc2c1c1ncnc(N)c1n2-c1ccc(Oc2ccc(C#N)cc2)cc1 (centres unmarked) [Compound 71] | > 1000 nM
24 | > 1000 nM | CC1OCc2c1c1ncnc(N)c1n2-c1ccc(Oc2cccnc2)cc1 (centres unmarked) [Compound 72] | > 1000 nM
25 | > 1000 nM | CC1OCc2c1c1ncnc(N)c1n2-c1ccc(Oc2cccc(OCCCN(C)C)c2)cc1 (centres unmarked) [Compound 73] | > 1000 nM
26 | > 1000 nM | CC1OCc2c1c1ncnc(N)c1n2-c1ccc(Oc2ccncc2)cc1 (centres unmarked) [Compound 74] | > 1000 nM

Row | Ki [1] | Structure (SMILES) | EC50 (mouse splenocytes)
27 | < 100 nM | CC1OCc2c1c1ncnc(N)c1n2-c1ccc(Oc2cccc(OCc3ccccn3)c2)cc1 (centres unmarked) [Compound 75] | > 1000 nM
28 | < 1000 nM | CC1OCc2c1c1ncnc(N)c1n2-c1ccc(Oc2cccc(NS(C)(=O)=O)c2)cc1 (centres unmarked) [Compound 76] | > 1000 nM
29 | < 100 nM | CC1OCc2c1c1ncnc(N)c1n2-c1ccc(Oc2cccc(OCCc3ccccc3)c2)cc1 (centres unmarked) [Compound 77] | 100 to 1000 nM
30 | < 1000 nM | CC1OCc2c1c1ncnc(N)c1n2-c1ccc(Oc2cccc(O[C@H](C)c3ccccc3)c2)cc1 (some centres unmarked) [Compound 78] | > 1000 nM
31 | < 1000 nM | Cc1ccc(Oc2ccc(-n3c4c(c5ncnc(N)c53)C(C)OC4)cc2)cc1 (centres unmarked) [Compound 79] | > 1000 nM
32 | < 1000 nM | CC1OCc2c1c1ncnc(N)c1n2-c1ccc(Oc2cccc(NS(=O)(=O)c3ccccc3)c2)cc1 (centres unmarked) [Compound 80] | > 1000 nM
33 | < 100 nM | CC1OCc2c1c1ncnc(N)c1n2-c1ccc(Oc2cccc(NS(=O)(=O)Cc3ccccc3)c2)cc1 (centres unmarked) [Compound 81] | > 1000 nM
34 | < 100 nM | CC1OCc2c1c1ncnc(N)c1n2-c1ccc(Oc2cccc(NC(=O)c3ccccc3)c2)cc1 (centres unmarked) [Compound 82] | > 1000 nM
35 | > 1000 nM | CC1OCc2c1c1ncnc(N)c1n2-c1ccc(Oc2cccc(OCC(N)=O)c2)cc1 (centres unmarked) [Compound 83] | > 1000 nM
36 | < 100 nM | CC1OCc2c1c1ncnc(N)c1n2-c1ccc(Oc2cccc(NC(=O)Cc3ccccc3)c2)cc1 (centres unmarked) [Compound 84] | > 1000 nM
37 | < 100 nM | CC1OCc2c1c1ncnc(N)c1n2-c1ccc(Oc2cccc(COc3ccccc3)c2)cc1 (centres unmarked) [Compound 85] | 100 to 1000 nM
38 | < 100 nM | CC1OCc2c1c1ncnc(N)c1n2-c1ccc(Oc2cccc(O[C@@H](C)c3ccccc3)c2)cc1 (some centres unmarked) [Compound 86] | > 1000 nM
39 | < 100 nM | Cc1nc(COc2cccc(Oc3ccc(-n4c5c(c6ncnc(N)c64)C(C)OC5)cc3)c2)no1 (centres unmarked) [Compound 87] | > 1000 nM
40 | > 1000 nM | CC1OCc2c1c1ncnc(N)c1n2-c1ccc(Oc2ccccc2)nc1 (centres unmarked) [Compound 88] | –
41 | < 100 nM | CC1OCc2c1c1ncnc(N)c1n2-c1ccc(Oc2cccc(OCc3cccc(C#N)c3)c2)cc1 (centres unmarked) [Compound 89] | 100 to 1000 nM
42 | < 100 nM | Cc1nc(-c2cccc(Oc3ccc(-n4c5c(c6ncnc(N)c64)C(C)OC5)cc3)c2)cs1 (centres unmarked) [Compound 90] | 100 to 1000 nM
43 | < 1000 nM | CC1OCc2c1c1ncnc(N)c1n2-c1ccc(Oc2cccc(N3CCOCC3)c2)cc1 (centres unmarked) [Compound 91] | –
44 | < 100 nM | CC1OCc2c1c1ncnc(N)c1n2-c1ccc(Oc2cccc(OCc3cccc(C(N)=O)c3)c2)cc1 (centres unmarked) [Compound 92] | 100 to 1000 nM
45 | < 100 nM | CC1OCc2c1c1ncnc(N)c1n2-c1ccc(Oc2cccc(OCc3cncn3C)c2)cc1 (centres unmarked) [Compound 93] | –
46 | < 100 nM | CC1OCc2c1c1ncnc(N)c1n2-c1ccc(Oc2cccc(OCc3ccccc3F)c2)cc1 (centres unmarked) [Compound 94] | 100 to 1000 nM
47 | < 100 nM | CC1OCc2c1c1ncnc(N)c1n2-c1ccc(Oc2cccc(OCc3ccc(Cl)cc3)c2)cc1 (centres unmarked) [Compound 95] | 100 to 1000 nM
48 | < 100 nM | CC1OCc2c1c1ncnc(N)c1n2-c1ccc(Oc2cccc(OCc3ccccc3C#N)c2)cc1 (centres unmarked) [Compound 96] | < 100 nM
49 | < 100 nM | CC1OCc2c1c1ncnc(N)c1n2-c1ccc(Oc2cccc(OCc3ccc(C(N)=O)cc3)c2)cc1 (centres unmarked) [Compound 98] | –
50 | < 1000 nM | CC1OCc2c1c1ncnc(N)c1n2-c1ccc(Oc2cccc(OCc3ccccc3C(N)=O)c2)cc1 (centres unmarked) [Compound 101] | –
51 | < 1000 nM | CC(=O)Nc1ccc(COc2cccc(Oc3ccc(-n4c5c(c6ncnc(N)c64)C(C)OC5)cc3)c2)cc1 (centres unmarked) [Compound 109] | –
